# Experimental data: patent US9951028B2, “Agricultural chemicals” (REDAG CROP PROTECTION LTD, priority 2013, dated 2018)
# Tests used:
# [1] = test system: garden cress, Lepidium sativum; test: Herbicidal efficacy screen, potter tower spray, necrosis assessed; format: in vivo
# Method: (§1) Compounds 22, 23 and 24 were screened for herbicidal efficacy against target plants: garden cress, Lepidium sativum, common chickweed, Stellaria media, and white mustard […] alba Plants were obtained as seeds and were grown to the 2-4 true leaf stage. Plants were grown under laboratory conditions, individually in seed trays. Each plant (in an approximately 3 cm diameter plug) was then detached from the tray for spraying. The compounds were screened at a range of five concentrations, diluted in acetone and TweenTM. A carrier only control was also conducted. Treatments were applied directly onto the plants, using a potter tower, at a specified application rate. One plant of each species was sprayed using a potter tower. The 3 different types of plants were placed on a 10 cm diameter platform directly beneath the potter sprayer and sprayed simultaneously. The growth of the plants and any Phytotoxicity effects were then assessed at intervals over 21 days, according to EPPO guideline PP1/135. Five replicas were performed for each treatment, for each species. In the tables below C represents a percentage increase in necrosis relative to the control of 0.1-50; B represents a percentage inhibition of 50-80; and A represents a percentage inhibition of 80-100.
# [2] = test system: common chickweed, Stellaria media; test: as above; format: in vivo
# Method: as §1
# [3] = 12.5 g/ha, day 1 post application
# [4] = 12.5 g/ha, day 2 post application
# [5] = 12.5 g/ha, day 3 post application
# [6] = 12.5 g/ha, day 4 post application
# [7] = 12.5 g/ha, day 5 post application
# [8] = 12.5 g/ha, day 7 post application
# [9] = 12.5 g/ha, day 10 post application
# [10] = 25 g/ha, day 1 post application
# [11] = 25 g/ha, day 2 post application
# [12] = 25 g/ha, day 3 post application
# [13] = 25 g/ha, day 4 post application
# [14] = 25 g/ha, day 5 post application
# [15] = 25 g/ha, day 7 post application
# [16] = 25 g/ha, day 10 post application
# [17] = 50 g/ha, day 1 post application
# [18] = 50 g/ha, day 2 post application
# [19] = 50 g/ha, day 3 post application
# [20] = 50 g/ha, day 4 post application
# [21] = 50 g/ha, day 5 post application
# [22] = 50 g/ha, day 7 post application
# [23] = 50 g/ha, day 10 post application
# [24] = 100 g/ha, day 1 post application
# [25] = 100 g/ha, day 2 post application
# [26] = 100 g/ha, day 3 post application
# [27] = 100 g/ha, day 4 post application
# [28] = 100 g/ha, day 5 post application
# [29] = 100 g/ha, day 7 post application
# [30] = 100 g/ha, day 10 post application
# [31] = 200 g/ha, day 1 post application
# [32] = 200 g/ha, day 2 post application
# [33] = 200 g/ha, day 3 post application
# [34] = 200 g/ha, day 4 post application
smiles,measurement,setting,value
"CC(C)N(C)S(=O)(=O)/N=C/c1cc(-n2c(=O)cc(C(F)(F)F)n(C)c2=O)c(F)cc1Cl [Compound 22, 1-[4-Chloro-2-fluoro-5-[(E)-(isopropyl(methyl)sulfamoyl)iminomethyl]phenyl]-3-methyl-2,6-dioxo-4-(trifluoromethyl)pyrimidine]",Average of necrosis,[1]; [3],C (C represents a percentage increase in necrosis relative to the control of 0.1-50)
same,Average of necrosis,[1]; [4],C (C represents a percentage increase in necrosis relative to the control of 0.1-50)
same,Average of necrosis,[1]; [5],C (C represents a percentage increase in necrosis relative to the control of 0.1-50)
same,Average of necrosis,[1]; [6],C (C represents a percentage increase in necrosis relative to the control of 0.1-50)
same,Average of necrosis,[1]; [7],C (C represents a percentage increase in necrosis relative to the control of 0.1-50)
same,Average of necrosis,[1]; [8],C (C represents a percentage increase in necrosis relative to the control of 0.1-50)
same,Average of necrosis,[1]; [9],B (B represents a percentage inhibition of 50-80)
same,Average of necrosis,[1]; [10],C (C represents a percentage increase in necrosis relative to the control of 0.1-50)
same,Average of necrosis,[1]; [11],C (C represents a percentage increase in necrosis relative to the control of 0.1-50)
same,Average of necrosis,[1]; [12],C (C represents a percentage increase in necrosis relative to the control of 0.1-50)
same,Average of necrosis,[1]; [13],C (C represents a percentage increase in necrosis relative to the control of 0.1-50)
same,Average of necrosis,[1]; [14],C (C represents a percentage increase in necrosis relative to the control of 0.1-50)
same,Average of necrosis,[1]; [15],C (C represents a percentage increase in necrosis relative to the control of 0.1-50)
same,Average of necrosis,[1]; [16],A (A represents a percentage inhibition of 80-100)
same,Average of necrosis,[1]; [17],C (C represents a percentage increase in necrosis relative to the control of 0.1-50)
same,Average of necrosis,[1]; [18],C (C represents a percentage increase in necrosis relative to the control of 0.1-50)
same,Average of necrosis,[1]; [19],C (C represents a percentage increase in necrosis relative to the control of 0.1-50)
same,Average of necrosis,[1]; [20],C (C represents a percentage increase in necrosis relative to the control of 0.1-50)
same,Average of necrosis,[1]; [21],B (B represents a percentage inhibition of 50-80)
same,Average of necrosis,[1]; [22],B (B represents a percentage inhibition of 50-80)
same,Average of necrosis,[1]; [23],B (B represents a percentage inhibition of 50-80)
same,Average of necrosis,[1]; [24],C (C represents a percentage increase in necrosis relative to the control of 0.1-50)
same,Average of necrosis,[1]; [25],C (C represents a percentage increase in necrosis relative to the control of 0.1-50)
same,Average of necrosis,[1]; [26],C (C represents a percentage increase in necrosis relative to the control of 0.1-50)
same,Average of necrosis,[1]; [27],C (C represents a percentage increase in necrosis relative to the control of 0.1-50)
same,Average of necrosis,[1]; [28],B (B represents a percentage inhibition of 50-80)
same,Average of necrosis,[1]; [29],B (B represents a percentage inhibition of 50-80)
same,Average of necrosis,[1]; [30],B (B represents a percentage inhibition of 50-80)
same,Average of necrosis,[1]; [31],C (C represents a percentage increase in necrosis relative to the control of 0.1-50)
same,Average of necrosis,[1]; [32],C (C represents a percentage increase in necrosis relative to the control of 0.1-50)
same,Average of necrosis,[1]; [33],C (C represents a percentage increase in necrosis relative to the control of 0.1-50)
same,Average of necrosis,[1]; [34],C (C represents a percentage increase in necrosis relative to the control of 0.1-50)
same,Average of necrosis,"[1]; 200 g/ha, day 5 post application",B (B represents a percentage inhibition of 50-80)
same,Average of necrosis,"[1]; 200 g/ha, day 7 post application",B (B represents a percentage inhibition of 50-80)
same,Average of necrosis,"[1]; 200 g/ha, day 10 post application",A (A represents a percentage inhibition of 80-100)
same,Average of necrosis,[2]; [3],C (C represents a percentage increase in necrosis relative to the control of 0.1-50)
same,Average of necrosis,[2]; [4],C (C represents a percentage increase in necrosis relative to the control of 0.1-50)
same,Average of necrosis,[2]; [5],C (C represents a percentage increase in necrosis relative to the control of 0.1-50)
same,Average of necrosis,[2]; [6],C (C represents a percentage increase in necrosis relative to the control of 0.1-50)
same,Average of necrosis,[2]; [7],B (B represents a percentage inhibition of 50-80)
same,Average of necrosis,[2]; [8],B (B represents a percentage inhibition of 50-80)
same,Average of necrosis,[2]; [9],B (B represents a percentage inhibition of 50-80)
same,Average of necrosis,[2]; [10],C (C represents a percentage increase in necrosis relative to the control of 0.1-50)
same,Average of necrosis,[2]; [11],C (C represents a percentage increase in necrosis relative to the control of 0.1-50)
same,Average of necrosis,[2]; [12],C (C represents a percentage increase in necrosis relative to the control of 0.1-50)
same,Average of necrosis,[2]; [13],C (C represents a percentage increase in necrosis relative to the control of 0.1-50)
same,Average of necrosis,[2]; [14],A (A represents a percentage inhibition of 80-100)
same,Average of necrosis,[2]; [15],A (A represents a percentage inhibition of 80-100)
same,Average of necrosis,[2]; [16],A (A represents a percentage inhibition of 80-100)
same,Average of necrosis,[2]; [17],C (C represents a percentage increase in necrosis relative to the control of 0.1-50)
same,Average of necrosis,[2]; [18],C (C represents a percentage increase in necrosis relative to the control of 0.1-50)
same,Average of necrosis,[2]; [19],C (C represents a percentage increase in necrosis relative to the control of 0.1-50)
same,Average of necrosis,[2]; [20],B (B represents a percentage inhibition of 50-80)
same,Average of necrosis,[2]; [21],B (B represents a percentage inhibition of 50-80)
same,Average of necrosis,[2]; [22],B (B represents a percentage inhibition of 50-80)
same,Average of necrosis,[2]; [23],A (A represents a percentage inhibition of 80-100)
same,Average of necrosis,[2]; [24],C (C represents a percentage increase in necrosis relative to the control of 0.1-50)
same,Average of necrosis,[2]; [25],C (C represents a percentage increase in necrosis relative to the control of 0.1-50)
same,Average of necrosis,[2]; [26],C (C represents a percentage increase in necrosis relative to the control of 0.1-50)
same,Average of necrosis,[2]; [27],B (B represents a percentage inhibition of 50-80)
same,Average of necrosis,[2]; [28],A (A represents a percentage inhibition of 80-100)
same,Average of necrosis,[2]; [29],A (A represents a percentage inhibition of 80-100)
same,Average of necrosis,[2]; [30],A (A represents a percentage inhibition of 80-100)
same,Average of necrosis,[2]; [31],C (C represents a percentage increase in necrosis relative to the control of 0.1-50)
same,Average of necrosis,[2]; [32],C (C represents a percentage increase in necrosis relative to the control of 0.1-50)
same,Average of necrosis,[2]; [33],C (C represents a percentage increase in necrosis relative to the control of 0.1-50)
same,Average of necrosis,[2]; [34],B (B represents a percentage inhibition of 50-80)
